Earlier results on two molecules are cited in patent US8080647B2 (priority 2006, dated 2011).

Data set [1] concerns cells.
In data set [2] the target is lac repressor (Escherichia coli, UniProt P03023).
The test system of data set [3] is lac operator-repressor system. The settings on record: Ulmasov et al. 1997.

With `CC(C)S[C@@H]1O[C@H](CO)[C@H](O)[C@H](O)[C@H]1O` [IPTG, isopropyl-B-D-thiogalactopyranoside], the “toxicity of the inducing agent” value in data set [1] is given as “cytotoxic”. Further, in data set [2], the “reduction of the affinity of lac repressor for the operator” value is listed as 300 fold.

B1: lactose repressor: repressor protein of the E. coli lactose operon (protein, UniProt P03023 1-360, looked up)
Lactose operon repressor: MKPVTLYDVAEYAGVSYQTVSRVVNQASHVSAKTREKVEAAMAELNYIPNRVAQQLAGKQSLLIGVATSSLALHAPSQIVAAIKSRADQLGASVVVSMVERSGVEACKAAVHNLLAQRVSGLIINYPLDDQDAIAVEAACTNVPALFLDVSDQTPINSIIFSHEDGTRLGVEHLVALGHQQIALLAGPLSSVSARLRLAGWHKYLTRNQIQPIAEREGDWSAMSGFQQTMQMLNEGIVPTAMLVANDQMALGAMRAITESGLRVGADISVVGYDDTEDSSCYIPPLTTIKQDFRLLGQTSVDRLLQLSQGQAVKGNQLLPVSLVKRKTTLAPNTQTASPRALADSLMQLARQVSRLESGQ
With B1, in data set [3], the repression reported is listed as 30 fold.
